Data reported in ChEMBL document CHEMBL1201862, “PubChem BioAssay data set” (2004).
Where “and” joins values, the source holds several entries; their conditions need not be identical. Identical values can stand only once.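 Growth conditions: 96-well plates. Treatment: test compound, 48 hours, 5 concentrations. Analysis: linear interpolation between bracketing concentrations; unreached endpoints set to highest concentration. GI50 marks 50% less growth.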 Calls of active or inactive are those of the source. No stated cut-off is given here; in the data, active = GI50 up to about 1.1 µM and inactive = higher.

Assays:
Test in all cases: growth of human tumour cells (NCI), 48 h
HT-29 = system: HT-29
HCC 2998 = system: HCC 2998
NCI/ADR-RES = system: NCI/ADR-RES
SF-268 = system: SF-268
Hs-578T = system: Hs-578T
SK-MEL-2 = system: SK-MEL-2
CCRF-CEM = system: CCRF-CEM
SF-539 = system: SF-539
A498 = system: A498
MDA-MB-435 = system: MDA-MB-435
UACC-257 = system: UACC-257
PC-3 = system: PC-3
SF-295 = system: SF-295
HCT-116 = system: HCT-116
SK-MEL-28 = system: SK-MEL-28
NCI-H23 = system: NCI-H23
ACHN = system: ACHN
HOP-62 = system: HOP-62
NCI-H226 = system: NCI-H226
HCT-15 = system: HCT-15
M14 = system: M14
MCF7 = system: MCF7
Malme-3M = system: Malme-3M
TK-10 = system: TK-10
IGROV-1 = system: IGROV-1
786-0 = system: 786-0
A549 = system: A549
SN12C = system: SN12C
SK-MEL-5 = system: SK-MEL-5
OVCAR-5 = system: OVCAR-5
U-251 = system: U-251
SNB-75 = system: SNB-75
NCI-H522 = system: NCI-H522
EKVX = system: EKVX
K562 = system: K562
RXF 393 = system: RXF 393
SR = system: SR
SNB-19 = system: SNB-19
SW-620 = system: SW-620
OVCAR-3 = system: OVCAR-3
OVCAR-4 = system: OVCAR-4
LOX IMVI = system: LOX IMVI
MDA-N = system: MDA-N
UACC-62 = system: UACC-62
SK-OV-3 = system: SK-OV-3
T47D = system: T47D
UO-31 = system: UO-31
HOP-92 = system: HOP-92
COLO 205 = system: COLO 205
BT-549 = system: BT-549
HL-60 = system: HL-60
MDA-MB-231 = system: MDA-MB-231
DU-145 = system: DU-145
CAKI-1 = system: CAKI-1
NCI-H460 = system: NCI-H460
KM12 = system: KM12
MOLT-4 = system: MOLT-4
OVCAR-8 = system: OVCAR-8
RPMI-8226 = system: RPMI-8226

## NCCOCC(N)C(=O)O (configuration not stated)
HT-29
  GI50: > 100 µM (inactive)
HCC 2998
  GI50: > 100 µM (inactive)
NCI/ADR-RES
  GI50: > 100 µM (inactive)
SF-268
  GI50: > 100 µM (inactive)
Hs-578T
  GI50: > 100 µM (inactive)
SK-MEL-2
  GI50: > 100 µM (inactive)
CCRF-CEM
  GI50: > 100 µM (inactive) and > 72.8 µM (inactive)
SF-539
  GI50: > 100 µM (inactive)
A498
  GI50: > 100 µM (inactive)
MDA-MB-435
  GI50: > 100 µM (inactive)
UACC-257
  GI50: > 100 µM (inactive)
PC-3
  GI50: > 100 µM (inactive)
SF-295
  GI50: > 100 µM (inactive)
HCT-116
  GI50: > 100 µM (inactive)
SK-MEL-28
  GI50: > 100 µM (inactive)
NCI-H23
  GI50: > 100 µM (inactive)
ACHN
  GI50: > 100 µM (inactive)
HOP-62
  GI50: > 100 µM (inactive)
NCI-H226
  GI50: > 100 µM (inactive)
HCT-15
  GI50: > 100 µM
M14
  GI50: > 100 µM (inactive)
MCF7
  GI50: > 100 µM (inactive)
Malme-3M
  GI50: > 100 µM (inactive)
TK-10
  GI50: > 100 µM (inactive)
IGROV-1
  GI50: > 100 µM (inactive)
786-0
  GI50: > 100 µM (inactive)
A549
  GI50: > 100 µM (inactive)
SN12C
  GI50: > 100 µM (inactive)
SK-MEL-5
  GI50: > 100 µM (inactive) and > 95.7 µM (inactive)
OVCAR-5
  GI50: > 100 µM (inactive)
U-251
  GI50: > 100 µM (inactive)
SNB-75
  GI50: > 100 µM (inactive)
NCI-H522
  GI50: > 100 µM (inactive)
EKVX
  GI50: > 100 µM (inactive)
K562
  GI50: > 100 µM (inactive)
RXF 393
  GI50: > 100 µM (inactive)
SR
  GI50: > 100 µM (inactive) and 54.8 µM (inactive)
SNB-19
  GI50: > 100 µM (inactive)
SW-620
  GI50: > 100 µM (inactive)
OVCAR-3
  GI50: > 100 µM (inactive)
OVCAR-4
  GI50: > 100 µM (inactive)
LOX IMVI
  GI50: > 100 µM (inactive) and > 77.4 µM (inactive)
MDA-N
  GI50: > 100 µM (inactive)
UACC-62
  GI50: > 100 µM (inactive)
SK-OV-3
  GI50: > 100 µM (inactive)
T47D
  GI50: > 100 µM (inactive)
UO-31
  GI50: > 100 µM (inactive)
HOP-92
  GI50: > 100 µM (inactive)
COLO 205
  GI50: > 100 µM (inactive)
BT-549
  GI50: > 100 µM (inactive)
HL-60
  GI50: > 100 µM (inactive)
MDA-MB-231
  GI50: > 100 µM (inactive)
DU-145
  GI50: > 100 µM (inactive)
CAKI-1
  GI50: > 100 µM (inactive)
NCI-H460
  GI50: > 100 µM (inactive)
KM12
  GI50: > 100 µM (inactive)
MOLT-4
  GI50: > 100 µM (inactive)
OVCAR-8
  GI50: > 100 µM (inactive)

## CCCCC1C=Cn2c(=O)oc3c(OC(C)C)c(C)c(O)c1c32 (configuration not stated)
HT-29
  GI50: 2.7 µM (inactive)
HCC 2998
  GI50: 2.96 µM (inactive)
NCI/ADR-RES
  GI50: 0.993 µM (active)
SF-268
  GI50: 0.796 µM (active)
Hs-578T
  GI50: 0.684 µM (active)
SK-MEL-2
  GI50: 1.66 µM (inactive)
CCRF-CEM
  GI50: 1.68 µM (inactive)
SF-539
  GI50: 2.49 µM (inactive)
A498
  GI50: 0.0423 µM (active)
MDA-MB-435
  GI50: 1.33 µM (inactive)
UACC-257
  GI50: 2.44 µM (inactive)
PC-3
  GI50: 2.43 µM (inactive)
SF-295
  GI50: 0.982 µM (active)
HCT-116
  GI50: 0.977 µM (active)
SK-MEL-28
  GI50: 1.19 µM (inactive)
NCI-H23
  GI50: 1.48 µM (inactive)
ACHN
  GI50: 0.413 µM (active)
HOP-62
  GI50: 0.0497 µM (active)
NCI-H226
  GI50: 1.63 µM (inactive)
HCT-15
  GI50: 0.357 µM
M14
  GI50: 1.19 µM (inactive)
MCF7
  GI50: 0.509 µM (active)
Malme-3M
  GI50: 1.47 µM (inactive)
TK-10
  GI50: 5.52 µM (inactive)
IGROV-1
  GI50: 1.88 µM (inactive)
786-0
  GI50: 1.16 µM (inactive)
A549
  GI50: 1.84 µM (inactive)
RPMI-8226
  GI50: 1.42 µM (inactive)
SN12C
  GI50: 1.37 µM (inactive)
SK-MEL-5
  GI50: 2 µM (inactive)
OVCAR-5
  GI50: 4.78 µM (inactive)
U-251
  GI50: 1.14 µM (inactive)
SNB-75
  GI50: 0.466 µM (active)
NCI-H522
  GI50: 1.24 µM (inactive)
EKVX
  GI50: 2.48 µM (inactive)
K562
  GI50: 0.91 µM (active)
SR
  GI50: 548 nM (active)
SNB-19
  GI50: 0.323 µM (active)
SW-620
  GI50: 0.904 µM (active)
OVCAR-3
  GI50: 2.75 µM (inactive)
OVCAR-4
  GI50: 0.601 µM (active)
LOX IMVI
  GI50: 566 nM (active)
MDA-N
  GI50: 2.37 µM (inactive)
UACC-62
  GI50: 0.929 µM (active)
SK-OV-3
  GI50: 3.14 µM (inactive)
T47D
  GI50: 1.85 µM (inactive)
UO-31
  GI50: 0.71 µM (active)
HOP-92
  GI50: 3.05 µM (inactive)
COLO 205
  GI50: 3.01 µM (inactive)
BT-549
  GI50: 2.17 µM (inactive)
HL-60
  GI50: 0.46 µM (active)
MDA-MB-231
  GI50: 1.87 µM (inactive)
DU-145
  GI50: 0.652 µM (active)
CAKI-1
  GI50: 0.409 µM (active)
NCI-H460
  GI50: 0.652 µM (active)
KM12
  GI50: 1.49 µM (inactive)
MOLT-4
  GI50: 0.824 µM (active)
OVCAR-8
  GI50: 1.73 µM (inactive)

## COC(=O)c1ccc(Nc2nc3[nH]cnc3c(=O)[nH]2)cc1
HT-29
  GI50: 58.7 µM (inactive)
HCC 2998
  GI50: > 100 µM (inactive)
NCI/ADR-RES
  GI50: > 100 µM (inactive)
SF-268
  GI50: 94 µM (inactive)
Hs-578T
  GI50: > 100 µM (inactive)
SK-MEL-2
  GI50: > 100 µM (inactive)
CCRF-CEM
  GI50: > 100 µM (inactive)
SF-539
  GI50: 67.3 µM (inactive)
A498
  GI50: > 100 µM (inactive)
MDA-MB-435
  GI50: 51.9 µM (inactive)
UACC-257
  GI50: > 100 µM (inactive)
PC-3
  GI50: > 100 µM (inactive)
SF-295
  GI50: > 100 µM (inactive)
HCT-116
  GI50: > 100 µM (inactive)
SK-MEL-28
  GI50: > 100 µM (inactive)
NCI-H23
  GI50: > 100 µM (inactive)
ACHN
  GI50: > 100 µM (inactive)
HOP-62
  GI50: > 100 µM (inactive)
NCI-H226
  GI50: > 100 µM (inactive)
HCT-15
  GI50: > 100 µM
M14
  GI50: 59.2 µM (inactive)
MCF7
  GI50: > 100 µM (inactive)
Malme-3M
  GI50: > 100 µM (inactive)
TK-10
  GI50: > 100 µM (inactive)
IGROV-1
  GI50: > 100 µM (inactive)
786-0
  GI50: > 100 µM (inactive)
A549
  GI50: > 100 µM (inactive)
RPMI-8226
  GI50: 47.5 µM (inactive)
SN12C
  GI50: > 100 µM (inactive)
SK-MEL-5
  GI50: > 100 µM (inactive)
OVCAR-5
  GI50: > 100 µM (inactive)
U-251
  GI50: > 100 µM (inactive)
SNB-75
  GI50: > 100 µM (inactive)
NCI-H522
  GI50: > 100 µM (inactive)
EKVX
  GI50: > 100 µM (inactive)
SR
  GI50: 65900 nM (inactive)
SNB-19
  GI50: > 100 µM (inactive)
SW-620
  GI50: > 100 µM (inactive)
OVCAR-3
  GI50: 54.6 µM (inactive)
OVCAR-4
  GI50: > 100 µM (inactive)
LOX IMVI
  GI50: 95500 nM (inactive)
MDA-N
  GI50: 32.9 µM (inactive)
UACC-62
  GI50: > 100 µM (inactive)
SK-OV-3
  GI50: 89.3 µM (inactive)
T47D
  GI50: 69 µM (inactive)
HOP-92
  GI50: > 100 µM (inactive)
COLO 205
  GI50: > 100 µM (inactive)
BT-549
  GI50: > 100 µM (inactive)
HL-60
  GI50: > 100 µM (inactive)
MDA-MB-231
  GI50: > 100 µM (inactive)
DU-145
  GI50: > 100 µM (inactive)
CAKI-1
  GI50: > 100 µM (inactive)
NCI-H460
  GI50: > 100 µM (inactive)
KM12
  GI50: > 100 µM (inactive)
MOLT-4
  GI50: 87.1 µM (inactive)
OVCAR-8
  GI50: > 100 µM (inactive)
